Results from the supplement of paper PMC10307832.

Assays:
Test in all cases: relative viability (nuclei count vs DMSO), 5 days (fraction); higher = more cells survive
[1] = compound: Cn1cc(-c2cnc3ccc4ccc(CS(=O)(=O)NCc5ccccn5)cc4c(=O)c3c2)cn1 [MK-8033]
Method in brief: (§1)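 Hoechst staining, done together with fixation and permeabilisation, marked nuclei for 4× imaging and MetaXpress counting. This followed 5 days without medium change after lung cancer cell lines, kept overnight at 37 °C in 1536-well plates, were pinned with five library-drug doses (not always all listed) spaced by √10 on vehicle-anchored plates. Viability is the ratio of treated-well to vehicle-well nuclei, expressed as a median across plates. Plates passed only at control CV below 25% with at least one doubling.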

[2] = compound: CC[C@@H](C)CNCC(=O)N1CCC2=C([C@@H]1COC3=CC=CC(=C3)C)C=CS2 [RU-SKI 43]
Method in brief: as §1

[3] = compound: CCc1c2c(nc3ccc(OC(=O)N4CCC(N5CCCCC5)CC4)cc13)-c1cc3c(c(=O)n1C2)COC(=O)[C@]3(O)CC [Irinotecan]
Method in brief: as §1

[4] = compound: CC[C@@H](C)CNCC(=O)N1CCC2=C([C@@H]1COC3=CC=CC(=C3)C)C=CS2 [RU-SKI 43] + CC(=O)Nc1cccc(-n2c(=O)n(C3CC3)c(=O)c3c(Nc4ccc(I)cc4F)n(C)c(=O)c(C)c32)c1 [Trametinib] (partner 0.02 µM)
Method in brief: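 Lung cancer cell lines in 1536-well plates got either a single drug or a fixed anchor-drug dose together with five library-drug doses (not always all listed) in √10 steps, by pin tool, on the day after seeding. Nuclei were counted after 5 days, and relative viability is the treated-to-vehicle ratio of nuclei counts. Values are medians of duplicate plates.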

| Cell Line | relative viability ([1]; 0.02 µM) | relative viability ([1]; 0.06325 µM) | relative viability ([1]; 0.2 µM) | relative viability ([1]; 0.6325 µM) | relative viability ([1]; 2 µM) | relative viability ([2]; 0.1 µM) | relative viability ([2]; 0.3162 µM) | relative viability ([2]; 1 µM) | relative viability ([2]; 3.162 µM) | relative viability ([2]; 10 µM) | relative viability ([3]; 0.6325 µM) | relative viability ([3]; 2 µM) | relative viability ([3]; 6.325 µM) | relative viability ([3]; 20 µM) | relative viability ([4]; first compound 0.1 µM) | relative viability ([4]; first compound 0.3162 µM) | relative viability ([4]; first compound 1 µM) | relative viability ([4]; first compound 3.162 µM) | relative viability ([4]; first compound 10 µM) |
| --- | --- | --- | --- | --- | --- | --- | --- | --- | --- | --- | --- | --- | --- | --- | --- | --- | --- | --- | --- |
| NCI-H596 | 0.918 | 0.838 | 0.971 | 0.983 | 1.04 | 0.945 | 0.965 | 1.01 | 0.963 | 0.983 | 0.889 | 1.07 | 0.914 | 0.643 | 0.775 | 0.883 | 0.858 | 0.793 | 0.717 |
| NCI-H3122 | 0.981 | 1.03 | 0.931 | 0.985 | 1.01 | 1.06 | 1.15 | 1.08 | 1.09 | 0.983 | 0.97 | 0.625 | 0.224 | 0.176 | 0.244 | 0.233 | 0.241 | 0.252 | 0.259 |
| NCI-H727 | 0.877 | 0.691 | 0.911 | 1.13 | 0.97 | 0.838 | 0.989 | 1.08 | 1.1 | 0.811 | 0.516 | 0.565 | 0.531 | 0.54 |  | 0.388 | 0.449 | 0.372 | 0.374 |
| NCI-H1355 | 1.02 | 0.894 | 0.914 | 1.01 | 0.992 | 1.02 | 1.12 | 1.08 | 1.04 | 0.921 |  | 0.948 | 0.426 | 0.3 | 0.451 | 0.437 | 0.376 | 0.477 | 0.464 |
| NCI-H1792 | 1.22 | 0.958 | 0.804 | 0.9 | 0.805 | 0.844 | 1.08 | 1.77 | 0.889 | 1.03 | 0.862 | 0.933 | 0.393 | 0.354 | 0.36 | 0.53 | 0.486 | 0.327 | 0.362 |
| NCI-H661 | 0.994 | 0.849 | 1.01 | 1.01 | 0.993 | 0.92 | 1.05 | 1.06 | 0.99 | 0.943 | 1.05 | 0.838 | 0.52 | 0.454 | 0.539 | 0.676 | 0.564 | 0.564 | 0.477 |
